Test results as given in US8802597B2, “Herbicidal pyrimidines” (E I du Pont de Nemours and Company, priority 2003, dated 2014).

Assays:
Test in all cases: Test G pre/postemergence
Assay type in all cases: in vivo
[1] = tested on: Italian ryegrass (Lolium multiflorum)
Summary of the method: (§1)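 Visual scores from 0 (no effect) to 100 (complete control) were assigned relative to untreated controls 12 to 21 days after treatment. Compounds, formulated in a non-phytotoxic solvent mixture with surfactant, were applied preemergence to planted seed or postemergence to plants at the 1- to 4-leaf stage (2 to 18 cm).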

[2] = tested on: Surinam grass (Brachiaria decumbens)
Summary of the method: as §1

[3] = tested on: annual bluegrass (Poa annua)
Summary of the method: as §1

[4] = tested on: barnyardgrass (Echinochloa crus-galli)
Summary of the method: as §1

[5] = tested on: bermudagrass (Cynodon dactylon)
Summary of the method: as §1

[6] = tested on: black mustard (Brassica nigra)
Summary of the method: as §1

[7] = tested on: common chickweed (Stellaria media); conditions: Preemergence, scale 0-100
Summary of the method: as §1

[8] = tested on: common ragweed (Ambrosia elatior)
Summary of the method: as §1

[9] = tested on: downy bromegrass (Bromus tectorum)
Summary of the method: as §1

[10] = tested on: field bindweed (Convolvulus arvensis)
Summary of the method: as §1

[11] = tested on: green foxtail (Setaria viridis)
Summary of the method: as §1

[12] = tested on: guineagrass (Panicum maximum)
Summary of the method: as §1

[13] = tested on: prickly sida (Sida spinosa)
Summary of the method: as §1

[14] = tested on: southern sandbur (Cenchrus echinatus)
Summary of the method: as §1

[15] = Postemergence, 8 g ai/ha, scale 0 to 100
[16] = Postemergence, 16 g ai/ha, scale 0 to 100
[17] = Postemergence, 31 g ai/ha, scale 0 to 100
[18] = Postemergence, 62 g ai/ha, scale 0 to 100
[19] = Preemergence, 8 g ai/ha, scale 0-100
[20] = Preemergence, 16 g ai/ha, scale 0-100
[21] = Preemergence, 31 g ai/ha, scale 0-100
[22] = Preemergence, 62 g ai/ha, scale 0-100

CCOC(=O)c1nc(-c2ccc(Cl)cc2)nc(N)c1Cl [Compound 64, ethyl 6-amino-5-chloro-2-(4-chlorophenyl)-4-pyrimidinecarboxylate]
65: Plant response rating, Ragweed [8, 19] | Plant response rating, Ragweed [8, 20] | Plant response rating, Ragweed [8, 21] | Plant response rating, Bindweed, Field [10, 22] | Plant response rating, Prickly Sida [13, 16]
50: Plant response rating, Prickly Sida [13, 22]
60: Plant response rating, Bindweed, Field [10, 15]
35: Plant response rating, Ryegrass, Italian [1, 18] | Plant response rating, Bermudagrass [5, 17] | Plant response rating, Bermudagrass [5, 18] | Plant response rating, Black Mustard [6, 22]
40: Plant response rating, Bromegrass, Downy [9, 17] | Plant response rating, Prickly Sida [13, 15]
75: Plant response rating, Ragweed [8, 15] | Plant response rating, Ragweed [8, 16] | Plant response rating, Bromegrass, Downy [9, 18] | Plant response rating, Prickly Sida [13, 17] | Plant response rating, Prickly Sida [13, 18]
100: Plant response rating, Ragweed [8, 17] | Plant response rating, Ragweed [8, 18]
80: Plant response rating, Bindweed, Field [10, 17]
90: Plant response rating, Bindweed, Field [10, 18]
20: Plant response rating, Ryegrass, Italian [1, 17] | Plant response rating, Barnyardgrass [4, 16] | Plant response rating, Barnyardgrass [4, 17] | Plant response rating, Barnyardgrass [4, 18] | Plant response rating, Bermudagrass [5, 16] | Plant response rating, Black Mustard [6, 21] | Plant response rating, Bromegrass, Downy [9, 16] | Plant response rating, Sandbur [14, 17] | Plant response rating, Sandbur [14, 18]
95: Plant response rating, Ragweed [8, 22]
70: Plant response rating, Bindweed, Field [10, 16]
10: Plant response rating, Ryegrass, Italian [1, 16] | Plant response rating, Surinam Grass [2, 18] | Plant response rating, Barnyardgrass [4, 22] | Plant response rating, Black Mustard [6, 18]
30: Plant response rating, Prickly Sida [13, 21]
0: Plant response rating, Ryegrass, Italian [1, 15] | Plant response rating, Ryegrass, Italian [1, 19] | Plant response rating, Ryegrass, Italian [1, 20] | Plant response rating, Ryegrass, Italian [1, 21] | Plant response rating, Ryegrass, Italian [1, 22] | Plant response rating, Surinam Grass [2, 15] | Plant response rating, Surinam Grass [2, 16] | Plant response rating, Surinam Grass [2, 17] | Plant response rating, Surinam Grass [2, 19] | Plant response rating, Surinam Grass [2, 20] | Plant response rating, Surinam Grass [2, 21] | Plant response rating, Surinam Grass [2, 22] | Plant response rating, Bluegrass [3, 15] | Plant response rating, Bluegrass [3, 16] | Plant response rating, Bluegrass [3, 17] | Plant response rating, Bluegrass [3, 18] | Plant response rating, Bluegrass [3, 19] | Plant response rating, Bluegrass [3, 20] | Plant response rating, Bluegrass [3, 21] | Plant response rating, Bluegrass [3, 22] | Plant response rating, Barnyardgrass [4, 15] | Plant response rating, Barnyardgrass [4, 19] | Plant response rating, Barnyardgrass [4, 20] | Plant response rating, Barnyardgrass [4, 21] | Plant response rating, Bermudagrass [5, 15] | Plant response rating, Bermudagrass [5, 19] | Plant response rating, Bermudagrass [5, 20] | Plant response rating, Bermudagrass [5, 21] | Plant response rating, Bermudagrass [5, 22] | Plant response rating, Black Mustard [6, 15] | Plant response rating, Black Mustard [6, 16] | Plant response rating, Black Mustard [6, 17] | Plant response rating, Black Mustard [6, 19] | Plant response rating, Black Mustard [6, 20] | Plant response rating, Chickweed ([7]; 8 g ai/ha) | Plant response rating, Chickweed ([7]; 31 g ai/ha) | Plant response rating, Chickweed ([7]; 62 g ai/ha) | Plant response rating, Bromegrass, Downy [9, 15] | Plant response rating, Bromegrass, Downy [9, 19] | Plant response rating, Bromegrass, Downy [9, 20] | Plant response rating, Bromegrass, Downy [9, 21] | Plant response rating, Bromegrass, Downy [9, 22] | Plant response rating, Bindweed, Field [10, 19] | Plant response rating, Bindweed, Field [10, 20] | Plant response rating, Bindweed, Field [10, 21] | Plant response rating, Foxtail, Green [11, 15] | Plant response rating, Foxtail, Green [11, 16] | Plant response rating, Foxtail, Green [11, 17] | Plant response rating, Foxtail, Green [11, 18] | Plant response rating, Foxtail, Green [11, 19] | Plant response rating, Foxtail, Green [11, 20] | Plant response rating, Foxtail, Green [11, 21] | Plant response rating, Foxtail, Green [11, 22] | Plant response rating, Guineagrass [12, 15] | Plant response rating, Guineagrass [12, 16] | Plant response rating, Guineagrass [12, 17] | Plant response rating, Guineagrass [12, 18] | Plant response rating, Guineagrass [12, 19] | Plant response rating, Guineagrass [12, 20] | Plant response rating, Guineagrass [12, 21] | Plant response rating, Guineagrass [12, 22] | Plant response rating, Prickly Sida [13, 19] | Plant response rating, Prickly Sida [13, 20] | Plant response rating, Sandbur [14, 15] | Plant response rating, Sandbur [14, 16] | Plant response rating, Sandbur [14, 19] | Plant response rating, Sandbur [14, 20] | Plant response rating, Sandbur [14, 21] | Plant response rating, Sandbur [14, 22]
